Experimental data from patent US9133220B2, “Boron-containing 5-arylidene-3,5-dihydro-4H-imidazol-4-ones” (Evrogen Joint Stock Company, priority 2012, dated 2015).
Values after ≈ are worked out from the molar mass of the structure shown. Like-named read-outs stand apart in the source and are kept apart here. Marks after values point to notes of the source that are not given here.

Key:
[1] = Determination of solubility in water; format: physicochemical; conditions: thermodynamic from solid
Procedure: To determine the solubility in water of compounds an excess amount of analyzed substance was put in a known volume of a solvent and stirred for 5 hours at r.t. The obtained mixture was centrifuged, and the concentration of a compound in mother liquor was measured with spectrophotometric method on the base of molar extinction coefficients data.

[2] = Measuring spectral characteristics (absorption and emission maxima, extinction coefficients); format: physicochemical
Procedure: (§1) To measure spectral characteristics of some compounds with the formula I weighted portions of compounds p-NH2-BDI-BF2, p-dimethylamino-BDI-BF2, p-diethylamino-BDI-BF2, p-HOBDI-BF2, di-F-p-HOBDI-BF2, p-diethylamino-BDI-dimethylaminoethenyl-BF2 and p-HOBDI-dimethylaminoethenyl-BF2 were dissolved in water, ethanol and acetonitrile. Absorption spectra were measured on Varian Cary 100 Bio spectrophotometer, fluorescence spectra were measured on Varian Cary Eclipse scanning spectrofluorometer.
The values of absorption and emission maxima and molar extinction coefficients for examples of compounds with the formula I in the indicated solvents are listed in a Table 2. Emission peaks of the investigated compounds settle into a rather wide range from 485 nm for p-HOBDI-BF2 to 598 nm for p-diethylamino-BDI-dimethylamino-ethenyl-BF2.

[3] = Quantum yield of fluorescence; format: physicochemical
Procedure: as §1
The compounds p-NH2-BDI-BF2, p-HOBDI-BF2 (anionic form), di-Fp-HOBDI-BF2 (anionic form), p-diethylamino-BDI-dimethylaminoethenyl-BF2, p-HOBDI-dimethylaminoethenyl-BF2 (anionic form) have rather high quantum yields of fluorescence in water solutions.

[4] = Photoacidity: acidity constants of ground and excited states; format: physicochemical
Text: Photoacidity is an ability to dissociate with formation of H^+ ion under the action of visible light. Photoacidity is characterized by constants of acidity of ground and excited states. Förster's equation describes the relationship between acidity constants of ground and excited states and energy of transfer between the states.
For compounds of the formula I, containing phenolic OH-group, high photoacidity—an ability to dissociate with formation of H^+ ion under the action of visible light—is a distinctive feature. […] (^1)((Z)-4-(2-(difluoroboryl)-3,5-difluoro-4-hydroxybenzylidene)-1,2-dimethyl-1H-imidazole-5(4H)-one)

[5] = cited from earlier work; for emission peak: widely used fluorescent dyes, approximate values
[6] = Chemical stability at high pH; format: physicochemical; conditions: pH 11, 70° C., 2 hours
Text: Compound of the general formula I differ from the majority of fluorescent dyes because of their high resistance to the action of different chemical factors—nucleophiles and high pH. […] It should be noted, that long-time heating in alkaline conditions may result in exchange of fluorine atoms from difluoroboryl residue to hydroxyl groups, however no significant change in absorption and fluorescence spectra is observed.

[7] = acidic and neutral pH values, r.t.
[8] = acidic and neutral values of pH
[9] = water, neutral form line, starred: only emission of deprotonated form can be measured due to high photoacidity

SMILES: CC1=N/C(=C\c2cc(F)c(O)cc2B(F)F)C(=O)N1C [F-p-HOBDI-BF2, (Z)-4-(2-(difluoroboryl)-5-fluoro-4-hydroxybenzylidene)-1,2-dimethyl-1H-imidazole-5(4H)-one]
- solubility at 5 h [1, 7]: ~1000 µM (≈ 282 µg/mL)
- solubility at 5 h [1, 8]: 1 µM (≈ 0.282 µg/mL)
- Abs. peak ([2]; acetonitrile, anionic form): 522 nm
- Emis. peak ([2]; acetonitrile, anionic form): 543 nm
- Abs. peak ([2]; acetonitrile, neutral form): 397 nm
- Emis. peak ([2]; acetonitrile, neutral form): 468 nm
- ext. coef. ([2]; acetonitrile, neutral form): 28000 M⁻¹ cm⁻¹
- shift of emission and absorption spectra with change of more polar solvent (water) to less polar (ethanol, acetonitrile) ([2]; anionic form): bathochromic shift
- Abs. peak ([2]; ethanol, anionic form): 505 nm
- Emis. peak ([2]; ethanol, anionic form): 537 nm
- ext. coef. ([2]; ethanol, anionic form): 48000 M⁻¹ cm⁻¹
- Abs. peak ([2]; ethanol, neutral form): 408 nm
- Emis. peak ([2]; ethanol, neutral form): 482 nm
- ext. coef. ([2]; ethanol, neutral form): 24000 M⁻¹ cm⁻¹
- shift of emission and absorption spectra with change of more polar solvent (water) to less polar (ethanol, acetonitrile) ([2]; neutral form): hypsochromic shift
- Abs. peak ([2]; water, anionic form): 478 nm
- Emis. peak ([2]; water, anionic form): 528 nm
- ext. coef. ([2]; water, anionic form): 38300 M⁻¹ cm⁻¹
- Abs. peak ([2]; water, neutral form): 392 nm
- ext. coef. ([2]; water, neutral form): 31500 M⁻¹ cm⁻¹
- Emis. peak [2, 9]: 528* nm

SMILES: CC1=N/C(=C\c2cc(F)c(O)c(F)c2B(F)F)C(=O)N1C [di-F-p-HOBDI-BF2, (Z)-4-(2-(difluoroboryl)-3,5-difluoro-4-hydroxybenzylidene)-1,2-dimethyl-1H-imidazole-5(4H)-one]
- solubility at 5 h [1, 7]: ~1000 µM (≈ 300 µg/mL)
- solubility at 5 h [1, 8]: 1 µM (≈ 0.3 µg/mL)
- Abs. peak ([2]; acetonitrile, anionic form): 519 nm
- Emis. peak ([2]; acetonitrile, anionic form): 542 nm
- Abs. peak ([2]; acetonitrile, neutral form): 392 nm
- Emis. peak ([2]; acetonitrile, neutral form): 460 nm
- ext. coef. ([2]; acetonitrile, neutral form): 26000 M⁻¹ cm⁻¹
- shift of emission and absorption spectra with change of more polar solvent (water) to less polar (ethanol, acetonitrile) ([2]; anionic form): bathochromic shift
- Abs. peak ([2]; ethanol, anionic form): 503 nm
- Emis. peak ([2]; ethanol, anionic form): 538 nm
- ext. coef. ([2]; ethanol, anionic form): 45000 M⁻¹ cm⁻¹
- Abs. peak ([2]; ethanol, neutral form): 400 nm
- ext. coef. ([2]; ethanol, neutral form): 21000 M⁻¹ cm⁻¹
- Emis. peak ([2]; ethanol, neutral form line, starred: only emission of deprotonated form can be measured due to high photoacidity): 538* nm
- shift of emission and absorption spectra with change of more polar solvent (water) to less polar (ethanol, acetonitrile) ([2]; neutral form): hypsochromic shift
- Abs. peak ([2]; water, anionic form): 484 nm
- Emis. peak ([2]; water, anionic form): 532 nm
- ext. coef. ([2]; water, anionic form): 44400 M⁻¹ cm⁻¹
- Abs. peak ([2]; water, neutral form): 400 nm
- ext. coef. ([2]; water, neutral form): 32000 M⁻¹ cm⁻¹
- Emis. peak [2, 9]: 532* nm
- Quantum yield of fluorescence ([3]; water, anionic form): 0.73
- pKa ([4]; excited state): < 0
- pKa* ([4]; excited state, listed as (Z)-4-(2-(difluoroboryl)-3,5-difluoro-4-hydroxybenzylidene)-1,2-dimethyl-1H-imid): lies in the negative region
- pKa* ([4]; excited state, listed as diF-p-HOBDI-BF2): in the range of negative values
- pKa ([4]; ground state, phenol group): 5.2

SMILES: CCCCCCCCCCCCCCCCCCN1/C(=C\C=C\c2oc3ccccc3[n+]2CCCCCCCCCCCCCCCCCC)Oc2ccccc21.[O-][Cl+3]([O-])([O-])[O-] [DiO]
- emission peak [5]: 501 nm

SMILES: O=C1OC2(c3ccc(O)cc3Oc3cc(O)ccc32)c2ccc(N=C=S)cc21 [FITC]
- emission peak [5]: 521 nm

SMILES: O=C1NC=N/C1=C\c1cccn1B(F)F [(Z)-4-((1-(difluoroboryl)-1H-pyrrol-2-yl)methylene)-1H-imidazole-5(4H)-one]
- Quantum yield of fluorescence ([5]; comparison values for known fluorophores): 0.81

SMILES: CCN(CC)c1ccc(/C=C2N=C(/C=C/N(C)C)N(C)C\2=O)c(B(F)F)c1 [(Z)-4-(4-(diethylamino)-2-(difluoroboryl)benzylidene)-2-((E)-2-(dimethylamino)vynil)-1-methyl-1H-imidazole-5(4H)-one]
- shift of emission and absorption spectra with change of more polar solvent (water) to less polar (ethanol, acetonitrile) [2]: hypsochromic shift
- Abs. peak ([2]; acetonitrile): 510 nm
- Emis. peak ([2]; acetonitrile): 583 nm
- Abs. peak ([2]; ethanol): 525 nm
- Emis. peak ([2]; ethanol): 588 nm
- Abs. peak ([2]; water): 525 nm
- Emis. peak ([2]; water): 598 nm
- Quantum yield of fluorescence ([3]; water): 0.35

SMILES: CC1=N/C(=C\c2ccc(O)cc2B(F)F)C(=O)N1C [p-HOBDI-BF2, (Z)-4-(2-(difluoroboryl)-4-hydroxybenzylidene)-1,2-dimethyl-1H-imidazole-5(4H)-one]
- solubility at 5 h [1, 7]: ~1000 µM (≈ 264 µg/mL)
- solubility at 5 h [1, 8]: 1 µM (≈ 0.264 µg/mL)
- Abs. peak ([2]; acetonitrile, anionic form): 521 nm
- Emis. peak ([2]; acetonitrile, anionic form): 540 nm
- Abs. peak ([2]; acetonitrile, neutral form): 402 nm
- Emis. peak ([2]; acetonitrile, neutral form): 469 nm
- ext. coef. ([2]; acetonitrile, neutral form): 31000 M⁻¹ cm⁻¹
- shift of emission and absorption spectra with change of more polar solvent (water) to less polar (ethanol, acetonitrile) ([2]; anionic form): bathochromic shift
- bathochromic shift of emission and absorption spectra relative to p-HOBDI ([2]; different solvents): 30-40 nm
- Abs. peak ([2]; ethanol, anionic form): 512 nm
- Emis. peak ([2]; ethanol, anionic form): 532 nm
- ext. coef. ([2]; ethanol, anionic form): 55000 M⁻¹ cm⁻¹
- Abs. peak ([2]; ethanol, neutral form): 416 nm
- Emis. peak ([2]; ethanol, neutral form): 483 nm
- ext. coef. ([2]; ethanol, neutral form): 25000 M⁻¹ cm⁻¹
- shift of emission and absorption spectra with change of more polar solvent (water) to less polar (ethanol, acetonitrile) ([2]; neutral form): hypsochromic shift
- Abs. peak ([2]; water, anionic form): 485 nm
- Emis. peak ([2]; water, anionic form): 520 nm
- ext. coef. ([2]; water, anionic form): 47000 M⁻¹ cm⁻¹
- Abs. peak ([2]; water, neutral form): 404 nm
- Emis. peak ([2]; water, neutral form): 485 nm
- ext. coef. ([2]; water, neutral form): 26000 M⁻¹ cm⁻¹
- Quantum yield of fluorescence ([3]; acetonitrile): 0.73
- fluorescence lifetime ([3]; acetonitrile): 3.2 ns
- Quantum yield of fluorescence ([3]; acetonitrile, anionic form): 0.73
- Quantum yield of fluorescence ([3]; water, anionic form): 0.54
- effect of incubation on absorption and emission spectra [6]: doesn't affect significantly
- pKa ([4]; excited state): 2
- pKa ([4]; ground state, phenol group): 6.4

SMILES: CCN1C(=CC=CC2=[N+](CCCCCC(=O)O)c3ccc(S(=O)(=O)O)cc3C2(C)C)C(C)(C)c2cc(S(=O)(=O)[O-])ccc21 [Cy3]
- emission peak [5]: 570 nm

SMILES: CC1=N/C(=C\c2ccc(O)cc2)C(=O)N1C [p-HOBDI, (Z)-4-(4-hydroxybenzylidene)-1,2-dimethyl-1H-imidazole-5(4H)-one]
- Quantum yield ([5]; p-HOBDI, from D. Mandal et al., J. Phys. Chem. B 108, 1102 (2004), spans water, ethanol, acetonitrile columns): Quantum yield is less than 10^−4

SMILES: CC1=N/C(=C\c2ccc(N)cc2B(F)F)C(=O)N1C [p-NH2-BDI-BF2, (Z)-4-(4-amino-2-(difluoroboryl)benzylidene)-1,2-dimethyl-1H-imidazole-5(4H)-one]
- shift of emission and absorption spectra with change of more polar solvent (water) to less polar (ethanol, acetonitrile) [2]: hypsochromic shift
- Abs. peak ([2]; acetonitrile): 451 nm
- Emis. peak ([2]; acetonitrile): 518 nm
- Abs. peak ([2]; ethanol): 476 nm
- Emis. peak ([2]; ethanol): 532 nm
- Abs. peak ([2]; water): 475 nm
- Emis. peak ([2]; water): 532 nm
- Quantum yield of fluorescence ([3]; acetonitrile): 0.62
- Quantum yield of fluorescence ([3]; ethanol): 0.64
- Quantum yield of fluorescence ([3]; water): 0.70

SMILES: CN(C)/C=C/C1=NC(=C\c2ccc(O)cc2B(F)F)/C(=O)N1C [p-HOBDI-dimethylaminoethenyl-BF2, (Z)-4-(2-(difluoroboryl)-4-hydroxybenzylidene)-2-((E)-2-(dimethylamino)vynil)-1-methyl-1H-imidazole-5(4H)-one]
- Abs. peak ([2]; acetonitrile, anionic form): 555 nm
- Emis. peak ([2]; acetonitrile, anionic form): 598 nm
- Abs. peak ([2]; acetonitrile, neutral form): 444 nm
- Emis. peak ([2]; acetonitrile, neutral form): 502 nm
- shift of emission and absorption spectra with change of more polar solvent (water) to less polar (ethanol, acetonitrile) ([2]; anionic form): bathochromic shift
- Abs. peak ([2]; ethanol, anionic form): 529 nm
- Emis. peak ([2]; ethanol, anionic form): 587 nm
- Abs. peak ([2]; ethanol, neutral form): 450 nm
- Emis. peak ([2]; ethanol, neutral form): 505 nm
- shift of emission and absorption spectra with change of more polar solvent (water) to less polar (ethanol, acetonitrile) ([2]; neutral form): hypsochromic shift
- Abs. peak ([2]; water, anionic form): 502 nm
- Emis. peak ([2]; water, anionic form): 570 nm
- Abs. peak ([2]; water, neutral form): 467 nm
- Emis. peak ([2]; water, neutral form): 521 nm
- Quantum yield of fluorescence ([3]; water, anionic form): 0.27

SMILES: CC1=N/C(=C\c2ccc(N(C)C)cc2B(F)F)C(=O)N1C [p-dimethylamino-BDI-BF2, (Z)-4-(4-(dimethylamino)-2-(difluoroboryl)benzylidene)-1,2-dimethyl-1H-imidazole-5(4H)-one]
- shift of emission and absorption spectra with change of more polar solvent (water) to less polar (ethanol, acetonitrile) [2]: hypsochromic shift
- Abs. peak ([2]; acetonitrile): 483 nm
- Emis. peak ([2]; acetonitrile): 551 nm
- Abs. peak ([2]; ethanol): 498 nm
- Emis. peak ([2]; ethanol): 557 nm
- Abs. peak ([2]; water): 507 nm
- Emis. peak ([2]; water): 565 nm
- Quantum yield of fluorescence ([3]; acetonitrile): 0.49
- Quantum yield of fluorescence ([3]; ethanol): 0.31
- Quantum yield of fluorescence ([3]; water): 0.05
